Common to all, as to assay type: cell-based
Experiment [1] has as its target T1, GABA-A receptor; alpha-5/beta-3/gamma-2 (Homo sapiens, UniProt P18507+P28472+P31644).
T1 sequence (P18507 whole entry): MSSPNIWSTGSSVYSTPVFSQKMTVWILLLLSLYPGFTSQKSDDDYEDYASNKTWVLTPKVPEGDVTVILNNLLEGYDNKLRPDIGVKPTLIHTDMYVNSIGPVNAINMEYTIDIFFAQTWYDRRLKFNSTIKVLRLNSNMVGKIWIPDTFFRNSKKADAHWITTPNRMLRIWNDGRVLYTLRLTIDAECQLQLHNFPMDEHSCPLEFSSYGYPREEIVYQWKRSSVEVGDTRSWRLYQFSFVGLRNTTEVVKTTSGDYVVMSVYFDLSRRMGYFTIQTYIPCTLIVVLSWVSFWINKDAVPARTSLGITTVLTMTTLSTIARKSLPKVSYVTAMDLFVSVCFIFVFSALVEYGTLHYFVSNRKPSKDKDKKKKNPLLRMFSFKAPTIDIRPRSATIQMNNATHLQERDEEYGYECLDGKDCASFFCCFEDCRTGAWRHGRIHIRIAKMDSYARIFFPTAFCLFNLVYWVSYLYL
T1 sequence (P28472 whole entry): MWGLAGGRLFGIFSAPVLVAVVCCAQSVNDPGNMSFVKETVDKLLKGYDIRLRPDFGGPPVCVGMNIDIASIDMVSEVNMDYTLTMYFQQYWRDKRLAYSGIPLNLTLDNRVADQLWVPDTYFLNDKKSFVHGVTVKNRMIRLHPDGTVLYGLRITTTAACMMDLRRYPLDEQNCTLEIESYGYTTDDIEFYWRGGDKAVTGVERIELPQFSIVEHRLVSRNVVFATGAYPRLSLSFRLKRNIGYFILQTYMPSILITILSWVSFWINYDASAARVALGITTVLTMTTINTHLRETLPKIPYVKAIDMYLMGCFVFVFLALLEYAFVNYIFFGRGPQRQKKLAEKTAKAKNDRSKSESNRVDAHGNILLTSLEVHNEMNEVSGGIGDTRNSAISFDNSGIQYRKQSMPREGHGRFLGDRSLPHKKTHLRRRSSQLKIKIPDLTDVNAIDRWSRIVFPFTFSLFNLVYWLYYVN
T1 sequence (P31644 whole entry): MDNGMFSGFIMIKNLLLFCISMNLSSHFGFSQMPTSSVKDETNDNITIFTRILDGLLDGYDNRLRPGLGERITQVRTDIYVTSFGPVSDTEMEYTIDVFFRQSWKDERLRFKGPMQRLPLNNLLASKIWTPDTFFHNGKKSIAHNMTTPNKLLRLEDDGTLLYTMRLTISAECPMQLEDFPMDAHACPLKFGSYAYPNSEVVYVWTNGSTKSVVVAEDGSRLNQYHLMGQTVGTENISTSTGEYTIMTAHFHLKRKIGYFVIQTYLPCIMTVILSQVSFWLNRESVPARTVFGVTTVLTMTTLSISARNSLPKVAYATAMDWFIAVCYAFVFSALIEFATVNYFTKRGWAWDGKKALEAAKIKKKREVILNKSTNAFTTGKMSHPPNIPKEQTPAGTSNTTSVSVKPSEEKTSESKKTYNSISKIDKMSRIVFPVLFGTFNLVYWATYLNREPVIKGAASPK
Kind of experiment: Inhibition of [3H]Ro-151788 binding to recombinant human gamma-aminobutyric-acid A receptor alpha-5-beta-3-gamma-2 subtype expressed in L (tk-) cells.

For experiment [2], the target named is T2, GABA-A receptor; alpha-2/beta-3/gamma-2 (Homo sapiens, UniProt P18507+P28472+P47869).
T2 sequence (P18507 whole entry): T1 sequence (P18507 whole entry)
T2 sequence (P28472 whole entry): T1 sequence (P28472 whole entry)
T2 sequence (P47869 whole entry): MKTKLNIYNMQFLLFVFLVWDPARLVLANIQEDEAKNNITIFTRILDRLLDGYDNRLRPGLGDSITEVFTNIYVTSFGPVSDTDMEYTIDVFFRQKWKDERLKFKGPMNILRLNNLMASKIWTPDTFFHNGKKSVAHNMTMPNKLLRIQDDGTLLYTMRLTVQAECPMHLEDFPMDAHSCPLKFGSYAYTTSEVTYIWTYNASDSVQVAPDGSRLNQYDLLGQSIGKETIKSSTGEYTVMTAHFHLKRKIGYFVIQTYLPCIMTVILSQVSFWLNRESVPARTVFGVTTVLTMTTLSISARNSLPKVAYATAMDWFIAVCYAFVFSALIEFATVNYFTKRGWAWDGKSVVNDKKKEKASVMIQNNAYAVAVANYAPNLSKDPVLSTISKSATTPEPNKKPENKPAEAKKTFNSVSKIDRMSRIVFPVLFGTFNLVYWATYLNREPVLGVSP
Kind of experiment: Inhibition of [3H]Ro-151788 binding to recombinant human gamma-aminobutyric acid A receptor alpha-2-beta-3-gamma-2 subtype expressed in L (tk-) cells.

The target in experiment [3] is T3, GABA-A receptor; alpha-1/beta-3/gamma-2 (Homo sapiens, UniProt P14867+P18507+P28472).
T3 sequence (P14867 whole entry): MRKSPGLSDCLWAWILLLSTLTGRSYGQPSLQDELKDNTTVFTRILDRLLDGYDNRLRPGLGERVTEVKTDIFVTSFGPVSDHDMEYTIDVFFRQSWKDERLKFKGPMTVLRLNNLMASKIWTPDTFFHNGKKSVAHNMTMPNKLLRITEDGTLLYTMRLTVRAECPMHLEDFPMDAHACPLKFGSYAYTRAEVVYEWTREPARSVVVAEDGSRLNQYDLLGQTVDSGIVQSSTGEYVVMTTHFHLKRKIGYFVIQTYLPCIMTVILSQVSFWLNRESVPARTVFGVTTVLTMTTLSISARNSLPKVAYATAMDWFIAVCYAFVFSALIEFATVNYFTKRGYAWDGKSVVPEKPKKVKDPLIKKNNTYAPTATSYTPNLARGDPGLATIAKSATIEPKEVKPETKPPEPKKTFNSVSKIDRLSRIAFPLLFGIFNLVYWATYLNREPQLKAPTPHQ
T3 sequence (P18507 whole entry): T1 sequence (P18507 whole entry)
T3 sequence (P28472 whole entry): T1 sequence (P28472 whole entry)
Description: Inhibition of [3H]Ro-151788 binding to recombinant human gamma-aminobutyric-acid A receptor alpha-1-beta-3-gamma-2 subtype expressed in L (tk-) cells.

For experiment [4], the target named is T4, GABA-A receptor; alpha-3/beta-3/gamma-2 (Homo sapiens, UniProt P18507+P28472+P34903).
T4 sequence (P18507 whole entry): T1 sequence (P18507 whole entry)
T4 sequence (P28472 whole entry): T1 sequence (P28472 whole entry)
T4 sequence (P34903 whole entry): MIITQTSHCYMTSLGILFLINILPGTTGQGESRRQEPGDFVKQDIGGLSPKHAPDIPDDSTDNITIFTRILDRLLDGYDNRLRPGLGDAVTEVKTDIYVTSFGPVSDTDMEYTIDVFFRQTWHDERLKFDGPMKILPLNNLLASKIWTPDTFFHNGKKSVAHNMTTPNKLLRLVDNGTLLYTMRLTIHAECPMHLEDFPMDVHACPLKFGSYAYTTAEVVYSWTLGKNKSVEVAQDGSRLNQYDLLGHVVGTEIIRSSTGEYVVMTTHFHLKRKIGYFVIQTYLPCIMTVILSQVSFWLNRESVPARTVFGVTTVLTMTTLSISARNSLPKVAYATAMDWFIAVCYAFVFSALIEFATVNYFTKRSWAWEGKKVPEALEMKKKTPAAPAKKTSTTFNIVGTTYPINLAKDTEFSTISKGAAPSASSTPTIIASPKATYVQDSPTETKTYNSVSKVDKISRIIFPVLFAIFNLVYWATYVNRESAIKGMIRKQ
Kind of experiment: Inhibition of [3H]Ro-151788 binding to recombinant human gamma-aminobutyric-acid A receptor alpha-3-beta-3-gamma-2 subtype expressed in L (tk-) cells.

What is called Ki is a measure of affinity in units of concentration, obtained from inhibition or displacement. `O=C(Nc1ccccn1)c1nn2c(-c3ccccc3)nnc2c2c1C1CCC2CC1`: the Ki in experiment [1] is 40 nM; in experiment [2], 290 nM; in experiment [3], over 1000 nM; in experiment [4], 170 nM.
For `Cc1cccc(CCCOc2nn3c(-c4ccccc4)nnc3c3c2C2CCC3CC2)n1`, the inhibition constant Ki was 30 nM in experiment [1], 190 nM in experiment [2], 75 nM in experiment [3] and 240 nM in experiment [4].
With `Cc1noc(COc2nn3c(-c4ccccc4)nnc3c3c2C2CCC3CC2)n1`, the Ki in experiment [1] was 12 nM; in experiment [2], 250 nM; in experiment [3], 290 nM; in experiment [4], 51 nM.
Turning to `CN(C)C(=O)COc1nn2c(-c3ccccc3)nnc2c2c1C1CCC2CC1`, the Ki in experiment [1] is 10 nM; in experiment [2] it was 160 nM; in experiment [3] it was 220 nM; in experiment [4] it was 89 nM.
For `Cc1nc(COc2nn3c(-c4ccccc4)nnc3c3c2C2CCC3CC2)no1` the same measures were 16 nM, 110 nM, 140 nM and 66 nM.
The corresponding values for `c1ccc(-c2nnc3c4c(c(OCCc5ccccn5)nn23)C2CCC4CC2)cc1` are 44 nM, 270 nM, 480 nM and 200 nM.
The corresponding values for `c1ccc(-c2nnc3c4c(c(OCc5ncccn5)nn23)C2CCC4CC2)cc1` are 9.2 nM, 68 nM, 87 nM and 33 nM.
For the compound `OCc1ccc(COc2nn3c(-c4ccccc4)nnc3c3c2C2CCC3CC2)cc1`, the Ki stood at 11 nM in experiment [1], 76 nM in experiment [2], 520 nM in experiment [3] and 44 nM in experiment [4].
The corresponding values for `c1ccc(-c2nnc3c4c(c(OCc5ccc6c(c5)OCO6)nn23)C2CCC4CC2)cc1` are over 500 nM, over 500 nM, over 500 nM and over 500 nM.
The corresponding values for `N#Cc1ccc(COc2nn3c(-c4ccccc4)nnc3c3c2C2CCC3CC2)cc1` are 9.4 nM, 110 nM, 310 nM and 70 nM.
For `c1ccc(COc2nn3c(-c4ccsc4)nnc3c3c2C2CCC3CC2)nc1` the same measures were 4.4 nM, 52 nM, 130 nM and 38 nM.
As to `Cn1nnc(COc2nn3c(-c4ccccc4)nnc3c3c2C2CCC3CC2)n1`, the Ki in experiment [1] turned out to be 6.5 nM; in experiment [2], 57 nM; in experiment [3], 60 nM; in experiment [4], 37 nM.
For `Cc1cnc(COc2nn3c(-c4ccccc4)nnc3c3c2C2CCC3CC2)s1` the same measures were 2 nM, 28 nM, 100 nM and 24 nM.
Consider `OCCCOc1nn2c(-c3ccccc3)nnc2c2c1C1CCC2CC1`, for which the Ki in experiment [1] was found to be 42 nM; in experiment [2], 310 nM; in experiment [3], 650 nM; in experiment [4] it was 170 nM.
The corresponding values for `Cc1nnc2ccc(-c3cccc(C(F)(F)F)c3)nn12` [CI-218872] are 460 nM, 720 nM, 66 nM and 850 nM.
For the compound `c1ccc(-c2nnc3c4c(c(OCc5cnc6ccccc6n5)nn23)C2CCC4CC2)cc1`, the Ki in experiment [1] was determined as 3.9 nM; in experiment [2], 34 nM; in experiment [3] it was 82 nM; in experiment [4], 26 nM.
The corresponding values for `Cc1cc(COc2nn3c(-c4ccccc4)nnc3c3c2C2CCC3CC2)sn1` are 11 nM, 130 nM, 210 nM and 99 nM.
For `Fc1ccccc1-c1nnc2c3c(c(OCc4ccccn4)nn12)C1CCC3CC1` the same measures were 0.54 nM, 16 nM, 28 nM and 6.1 nM.
Regarding `c1ccc(-c2nnc3c4c(c(OCc5nc6ccccc6s5)nn23)C2CCC4CC2)cc1`, the Ki in experiment [1] was 23 nM; in experiment [2] it was over 1000 nM; in experiment [3], over 1000 nM; in experiment [4] it was 250 nM.
Turning to `Cc1cccc(COc2nn3c(-c4ccccc4)nnc3c3c2C2CCC3CC2)n1`, the Ki amounted to 2.6 nM in experiment [1], 36 nM in experiment [2], 160 nM in experiment [3] and 20 nM in experiment [4].
For `Cc1conc1COc1nn2c(-c3ccccc3)nnc2c2c1C1CCC2CC1` the same measures were 2.7 nM, 35 nM, 80 nM and 18 nM.
For `CCO[n+]1ccccc1Oc1nn2c(-c3ccccc3)nnc2c2c1C1CCC2CC1` the same measures were 64 nM, 390 nM, over 1000 nM and 550 nM.
The corresponding values for `O=C(COc1nn2c(-c3ccccc3)nnc2c2c1C1CCC2CC1)N1CCCC1` are 9 nM, 160 nM, 230 nM and 50 nM.
Regarding `Cc1cccc(-c2nnc3c4c(c(OCc5ccccn5)nn23)C2CCC4CC2)c1`, the Ki worked out at 17 nM in experiment [1], 210 nM in experiment [2], 570 nM in experiment [3] and 140 nM in experiment [4].

(Values after ChEMBL document CHEMBL1142695, “Discovery of functionally selective 7,8,9,10-tetrahydro-7,10-ethano-1,2,4-triazolo[3,4-a]phthalazines as GABA A receptor agonists at the alpha3 subunit” (J Med Chem, 2005).)
